Results from US20150250785A1, “Tropomyosin-Related Kinase Inhibitors” (PFIZER LIMITED, priority 2012, published 2015).

Target: T1, TRKA (NTRK1) recombinant His-tagged cytoplasmic domain aa 441-796 (Homo sapiens, UniProt P04629)
T1 construct: aa 441-; 4 nM; 40 uM; 35 min; (NTRK1); 796; His; purchased Invitrogen PV3144
Experiment: Isolated TRK enzyme assay (HTRF KinEASE-TK), PV3144 TrkA
Assay type: biochemical
Settings: 4 nM enzyme, 40 uM ATP, 35 min, arithmetic mean where more than one reading
Protocol: Isolated TRK Enzyme assays use the HTRF KinEASE-TK kit (Cisbio Cat#62TK0PEJ) with recombinant His-tagged cytoplasmic domains of each TRK receptor sourced from Invitrogen (see table below). This activity-assay measures the phosphorylation of tyrosine residues within a substrate from the HTRF kit which has been validated by Cisbio for a variety of tyrosine kinases including the TRK receptors.
0.5 mM stock solutions of test compounds are prepared and serially diluted in 100% DMSO. A standard curve using the compound of Example 135 disclosed in WO2005/116035 of 150 uM is also prepared on each test plate. High percentage effect (HPE) is defined by 150 uM (using the compound of Example 135 as disclosed in WO2005/116035) and 0% effect (ZPE) is defined by 100% DMSO. Greiner low volume black plates containing 0.2 ul of serially diluted compound, standard and HPE/ZPE are created using the Bravo nanolitre dispenser.
1× enzyme buffer is prepared from 5× Enzymatic Buffer from the Cisbio KinEASE TK kit using MilliQ water. The buffer is then supplemented with 10 mM MgCl and 2 mM DTT (both from Sigma). In the case of TRKB, the buffer is also supplemented with 125 nM Supplement Enzymatic Buffer (SEB) from the Cisbio kit.
2×FAC of enzyme and 2×FAC ATP diluted in 1× complete enzyme buffer is incubated at room temperature for 20 minutes to preactivate the enzyme. Following this preactivation step, 5 ul/well of enzyme+ATP mix is added using a Multidrop Micro to the assay plate, spotted with 0.2 ul 100% DMSO compound. […]
After the Detection Reagent addition, plates are covered and incubated at room temperature for 60 minutes. HTRF signal is read using an Envision reader, measured as a ratio of emissions at two different wavelengths, 620 nm and 665 nm. […] Test compound data are expressed as percentage inhibition defined by HPE and ZPE values for each plate. […]
Below are TrkA IC50 data generated using the PV3144 TrkA enzyme assay. Where more than one reading was taken, the arithmetic mean is presented.

T1 sequence (P04629 441-796): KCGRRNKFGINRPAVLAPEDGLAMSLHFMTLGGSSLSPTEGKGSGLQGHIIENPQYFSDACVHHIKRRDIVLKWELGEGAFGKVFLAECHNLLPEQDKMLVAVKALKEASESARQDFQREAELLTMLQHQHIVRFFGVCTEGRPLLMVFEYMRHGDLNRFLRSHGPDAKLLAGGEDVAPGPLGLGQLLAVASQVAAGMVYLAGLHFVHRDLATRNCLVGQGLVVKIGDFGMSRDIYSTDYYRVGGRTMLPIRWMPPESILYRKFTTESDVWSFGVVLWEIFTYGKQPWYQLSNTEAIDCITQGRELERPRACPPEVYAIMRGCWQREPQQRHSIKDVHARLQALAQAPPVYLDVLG

Compound | IC50 [nM]
CC(C)n1nc(C(=O)c2ccnc(NC(=O)Cc3coc(C4CC4)n3)c2)c2cnccc21 [Example 1, 2-(2-cyclopropyl-1,3-oxazol-4-yl)-N-{4-[(1-isopropyl-1H-pyrazolo[4,3-c]pyridin-3-yl)carbonyl]pyridin-2-yl}acetamide] | 21
CC(C)n1nc(C(=O)c2ccnc(NC(=O)Cc3ccc(C#N)cc3)c2)c2cnccc21 [Example 2, 2-(4-cyanophenyl)-N-{4-[(1-isopropyl-1H-pyrazolo[4,3-c]pyridin-3-yl)carbonyl]pyridin-2-yl}acetamide] | 20.4
CC(C)c1nc(C(=O)c2ccnc(NC(=O)Cn3ccc(C(F)(F)F)n3)c2)c2cnccn12 [Example 3, N-{4-[(3-isopropylimidazo[1,5-a]pyrazin-1-yl)carbonyl]pyridin-2-yl}-2-[3-(trifluoromethyl)-1H-pyrazol-1-yl]acetamide] | 16.6
